Results reported in ChEMBL document CHEMBL3227967, “Quantitative structure-activity relationships in 1-aryl-2-(alkylamino)ethanol antimalarials” (J Med Chem, 1979).

test system: Plasmodium berghei; test: Antimalarial activity against Plasmodium berghei; format: functional

Structure (SMILES)	log(1/C)
OC(CC1CCCCN1)c1cc2cccc(C(F)(F)F)c2c2ccc(Cl)cc12 (centres undefined)	3.66
CCCCN(CCCC)CC(O)c1cc(Cl)cc2cc3ccccc3cc12 (centres undefined)	2.72
CCCC[N+]([O-])(CCCC)CC(O)c1cc(-c2ccc(Cl)cc2)nc(-c2ccc(Cl)cc2)c1 (centres undefined)	3.57
CCCCCCCN(CCCCCCC)CC(O)c1cc(-c2ccc(Cl)c(Cl)c2)cc2cc(Cl)c(OC)cc12 (centres undefined)	2.58
CCCCN(CCCC)CC(O)c1cc2cc(Br)ccc2c2cc(S(C)(=O)=O)ccc12 (centres undefined)	3.43
CCCCN(CCCC)CC(O)c1cc2c(Cl)cc(Cl)cc2c2sccc12 (centres undefined)	3.28
OC(CC1CCCCN1)c1cc2cc(C(F)(F)F)cc(C(F)(F)F)c2c2ccc(Cl)cc12 (centres undefined)	4.82
CCN(CC)CC(O)c1cc(-c2ccc(Cl)cc2)cc2ccccc12 (centres undefined)	3.51
CCN(CC)CC(O)c1ccnc2cc(Cl)ccc12 (centres undefined)	3.03
CC(C)(C)NCCC(O)c1cc(C(F)(F)F)nc2c(C(F)(F)F)cccc12 (centres undefined)	3.47
CCCCCCCN(CCCCCCC)CC(O)c1cc2cc(Cl)cc(Cl)c2nc1-c1ccc(Cl)cc1 (centres undefined)	2.43
OC(CC1CCCCN1)c1cc2c(Br)cc(Br)cc2c2cc(C(F)(F)F)ccc12 (centres undefined)	4.2
CCCCN(CCCC)CC(O)c1cc(-c2ccc(Cl)cc2)nc(-c2ccc(Cl)cc2)c1.O=C(O)CCC(=O)O (centres undefined)	3.71
CCCCN(CCCC)CC(O)c1cc(-c2ccc(Cl)c(Cl)c2)nc2ccc(OC)cc12 (centres undefined)	3.33
OC(CC1CCCCN1)c1cc(C(F)(F)F)nc2ccc(C(F)(F)F)cc12 (centres undefined)	3.65
CN1CCN(CC(O)c2cc(-c3ccccc3)nc3c(Cl)cc(Cl)cc23)CC1 (centres undefined)	2.48
CCCCN(CCCC)CC(O)c1cccc2cc3cccc(Cl)c3cc12 (centres undefined)	2.26
CCCCN(CCCC)CC(O)c1cccc2ccc3ccccc3c12 (centres undefined)	2.09
OC(CC1CCCCN1)c1cc2ccc(C(F)(F)F)cc2c2cc(C(F)(F)F)ccc12 (centres undefined)	3.99
CCCCCN(CCCCC)CC(O)c1cc2ccc(Cl)c(Cl)c2c2cc(C(F)(F)F)ccc12 (centres undefined)	4.26
CCCCCCCN(CCCCCCC)CC(O)c1cc2ccc(Cl)cc2c2cc(C(F)(F)F)ccc12 (centres undefined)	3.61
CCCCCCCN(CCCCCCC)CC(O)c1cc2sccc2c2cc(Cl)sc12 (centres undefined)	2.64
CCCCCN(CCCCC)CC(O)c1cccc2c1ccc1ccccc12 (centres undefined)	2.33
CCCCCCCN(CCCCCCC)CC(O)c1cc2ccccc2c2ccccc12 (centres undefined)	2.87
OC(CC1CCCCN1)c1cc2c(Cl)cc(Cl)cc2c2cc(Br)ccc12 (centres undefined)	3.81

Structure (SMILES)	log(1/C)
CCCCN(CCCC)CC(O)c1cc(-c2ccc(F)cc2)nc2c(Cl)cc(Cl)cc12 (centres undefined)	3.98
Cc1cccc2c(C(O)CC3CCCCN3)cc(-c3ccc(Cl)cc3)nc12 (centres undefined)	3.67
CCCCCN(CCCCC)CC(O)c1cccc2c1cc(Cl)c1ccccc12 (centres undefined)	2.14
CCCCN(CCCC)CC(O)c1c(Cl)cc2ccc(-c3ccc(Cl)cc3)nc2c1Cl (centres undefined)	3.02
CCCCCCNCC(O)c1cc2ccc(C(F)(F)F)cc2c2cc(C(F)(F)F)ccc12 (centres undefined)	3.78
CCCCCCN(CCCCCC)CC(O)c1cc(-c2ccc(Cl)cc2)nc(-c2ccc(Cl)cc2)c1 (centres undefined)	3.18
CCCCN(CCCC)CC(O)c1c(Br)c2ccccc2c2ccccc12 (centres undefined)	2.51
CCCCN(CCCC)CC(O)c1cc2ccccc2c2cc(C(F)(F)F)ccc12 (centres undefined)	3.23
CCCCN(CCCC)CC(O)c1c(C)c(-c2ccc(Cl)cc2Cl)nc2c(Cl)cc(Cl)cc12 (centres undefined)	3.15
CCCCN(CCCC)CC(O)c1cc(C(=O)c2cccc(Cl)c2)nc2c(C(F)(F)F)cc(Cl)cc12 (centres undefined)	3.98
CCCCN(CCCC)CC(O)c1cc(/C=C/c2ccc(Cl)cc2)cc(C(F)(F)F)c1 (centres undefined)	4.37
Cc1cc(C)c2nc(Oc3ccc(Cl)cc3)cc(C(O)CC3CCCCN3)c2c1 (centres undefined)	2.72
CCCCCN(CCCCC)CC(O)c1cc2ccc(C(F)(F)F)cc2c2ccsc12 (centres undefined)	2.69
CCCCNCCC(O)c1c2ccccc2c(Cl)c2ccccc12 (centres undefined)	2.49
CCCCN(CCCC)CC(O)c1cccc2c1ccc1cc(Cl)c(Cl)cc12 (centres undefined)	2.96
CCCCN(CCCC)CC(O)c1cc(-c2ccc(Br)cc2)nc(-c2ccc(Br)cc2)c1 (centres undefined)	3.31
CCCCCCCCNCC(O)c1cc(-c2ccc(C(F)(F)F)cc2)nc(-c2ccc(C(F)(F)F)cc2)c1 (centres undefined)	3.76
OC(CC1CCCCN1)c1cc2cc(C(F)(F)F)cc(C(F)(F)F)c2c2ccccc12 (centres undefined)	4.19
CCCCCCN(CCCCCC)CC(O)c1cc(-c2ccc(Cl)cc2)nc2cc(C(F)(F)F)ccc12 (centres undefined)	2.85
CCCCCCN(CCCCCC)CC(O)c1cc(-c2ccccc2)nc2c(Cl)cc(Cl)cc12 (centres undefined)	3.35
CCCCN(CCCC)CC(O)c1cc(-c2ccc(OC)cc2)nc(-c2ccc(OC)cc2)c1 (centres undefined)	2.17
CCCCCCCN(CCCCCCC)CC(O)c1cccc2c1ccc1cc(Cl)c(Cl)cc12 (centres undefined)	2.55
CCCC[N+]([O-])(CCCC)CC(O)c1cc(-c2ccc(Cl)c(Cl)c2)nc(-c2ccc(Cl)c(Cl)c2)c1 (centres undefined)	2.72
CCCCN(CCCC)CC(O)c1ccc2ccc3cccc(C(F)(F)F)c3c2c1 (centres undefined)	2.23
CCCCCCN(CCCCCC)CC(O)c1cc(-c2ccc(F)cc2)nc(-c2ccc(F)cc2)c1 (centres undefined)	2.58

Structure (SMILES)	log(1/C)
CCCCN(CCCC)CC(O)c1cc2cnccc2c2c(Cl)cc(Cl)cc12 (centres undefined)	2.42
CCCCN(CCCC)CC(O)c1cc(C(F)(F)c2ccccc2)nc2c(Cl)cccc12 (centres undefined)	2.46
CCCCN(CCCC)CC(O)c1cccc2c1cc(Cl)c1ccccc12 (centres undefined)	2.26
COc1ccc(-c2cc(C(O)CC3CCCCN3)c3cccc(C(F)(F)F)c3n2)cc1 (centres undefined)	3.88
CC(C)NCC(O)c1cc2ccc(C(F)(F)F)cc2c2cc(C(F)(F)F)ccc12 (centres undefined)	3.8
CCCCN(CCCC)CC(O)c1cc(C(=O)c2cc(C(F)(F)F)cc(C(F)(F)F)c2)nc2c(Cl)cc(Cl)cc12 (centres undefined)	4.64
CN1CCN(CC(O)c2cc(-c3ccc(Cl)cc3)nc3cc(Cl)ccc23)CC1 (centres undefined)	2.66
OC(CC1CCCCN1)c1cc(Oc2ccc(Cl)cc2)nc2ccc(Cl)cc12 (centres undefined)	3.23
CCCCN(CCCC)CC(O)c1cc(C(C)(C)C)nc2c1cc(Cl)c1ccccc12 (centres undefined)	2.98
COc1ccc(OC)c2c(C(O)CNC34CC5CC(CC(C5)C3)C4)cc(-c3ccc(Cl)cc3)nc12 (centres undefined)	2.48
OC(CC1CCCCN1)c1cc(C(F)(F)F)nc2c(F)cccc12 (centres undefined)	2.36
CCCCN(CCCC)CC(O)c1cc(Oc2cccc(C(F)(F)F)c2)cc2c(Cl)cc(Cl)cc12 (centres undefined)	2.52
CCCCCCCN(CCCCCCC)CC(O)c1cc2ccc(C(F)(F)F)cc2c2cc(Cl)sc12 (centres undefined)	3.38
CCCCN(CCCC)CC(O)c1cc2cc(Cl)cc(Cl)c2nc1-c1ccc(Cl)cc1 (centres undefined)	2.32
CCCCN(CCCC)CC(O)c1cc(C(=O)c2cccc(C(F)(F)F)c2)nc2c(C(F)(F)F)cc(Cl)cc12 (centres undefined)	4.52
CC(C)CN(C)CC(O)c1cc(-c2ccc(Cl)cc2)nc(-c2ccc(Cl)cc2)c1 (centres undefined)	3.29
CN1CCN(CC(O)c2cc(-c3ccc(F)cc3)nc3cc(F)ccc23)CC1 (centres undefined)	2.27
OC(CC1CCCCN1)c1cc2ccc(Cl)cc2c2cc(Cl)ccc12 (centres undefined)	3.5
CCCCN(CCCC)CC(O)c1cc(-c2ccc(OC)c(OC)c2)nc2ccc(Cl)cc12 (centres undefined)	3.33
CCCCN(CCCC)CC(O)c1cc(-c2ccc(Cl)cc2)nc2cc(Cl)ccc12 (centres undefined)	3.91
CCCCNCC(O)c1cc(/C=C/c2ccc(C(F)(F)F)cc2)nc(-c2ccc(C(F)(F)F)cc2)c1 (centres undefined)	3.89
CCCCCCN(CCCCCC)CC(O)c1cccc2ccc3ccccc3c12 (centres undefined)	2.2
CCCCN(CCCC)CC(O)c1cc(C2(C)CCCC2)nc2c(Cl)cc(Cl)cc12 (centres undefined)	2.66
CCCCCCN(CCCCCC)CC(O)c1cc(-c2ccc(Cl)cc2)nc2cc(OC)c(Cl)cc12 (centres undefined)	2.8
OC(CC1CCCCN1)c1cc2ccccc2c2ccccc12 (centres undefined)	2.53

Structure (SMILES)	log(1/C)
CCCCCCCCN(CCCCCCCC)CCC(O)c1cc2c(O)cccc2c2ccccc12 (centres undefined)	2.65
OC(CC1CCCCN1)c1c2c(nc3c(Cl)cc(Cl)cc13)-c1cccc(Cl)c1CC2 (centres undefined)	3.6
CCCCN(CCCC)CC(O)c1cc2cc(Br)c(Br)cc2c2cc(C(F)(F)F)ccc12 (centres undefined)	4.31
CN(C)CC(O)c1cc(-c2ccc(Cl)cc2)nc(-c2ccc(Cl)cc2)c1 (centres undefined)	3.18
CCCCCCCN(CCCCCCC)CC(O)c1cccc2c3ccccc3c3ccccc3c12 (centres undefined)	2.28
OC(CC1CCCCN1)c1cc2cc(Cl)c(Cl)cc2c2cc(Br)ccc12 (centres undefined)	3.91
CCCCN(CCCC)CC(O)c1cc2ccccc2c2ccsc12 (centres undefined)	2.22
OC(CC1CCCCN1)c1cc2cc(Cl)ccc2c2ccccc12 (centres undefined)	2.56
CCCCN(CCCC)CC(O)c1cc(-c2ccccc2)nc2ccc(OC)cc12 (centres undefined)	2.89
OC(CC1CCCCN1)c1cc2cc(Cl)ccc2c2ccc(C(F)(F)F)cc12 (centres undefined)	3.25
CC(C)CCCN(CCC(C)C)CC(O)c1cc(-c2ccc(C(F)(F)F)cc2)nc(C(F)(F)F)c1 (centres undefined)	3.04
CCCCN(CCCC)CC(O)c1cc(Oc2cc(Cl)cc(Cl)c2)cc2c(Cl)cc(Cl)cc12 (centres undefined)	2.9
CCCN(CCC)CC(O)c1cc(C(F)(F)F)nc2c(C(F)(F)F)cccc12 (centres undefined)	2.88
CCCCN(CCCC)CC(O)c1cc(-c2ccc(Cl)cc2)nc2cc(Cl)c(OC)cc12 (centres undefined)	3.87
CCOCCN(CCOCC)CC(O)c1cc(-c2ccc(Cl)c(Cl)c2)nc2ccc(OC)cc12 (centres undefined)	2.83
OC(CC1CCCCN1)c1cc2c(Cl)c(Cl)c(Cl)c(Cl)c2c2cc(C(F)(F)F)ccc12 (centres undefined)	4.75
OC(CC1CCCCN1)c1cc(C(F)(F)F)nc2c1cc(Cl)c1ccccc12 (centres undefined)	3.43
OC(CC1CCCCN1)c1cc2cc3c(cc2c2cc(Cl)ccc12)OCO3 (centres undefined)	3.14
CCCCN(CCCC)CC(O)c1ccc(Cl)c2ncccc12 (centres undefined)	2.16
CCCCCCCN(CCCCCCC)CC(O)c1c(Br)ccc2c1ccc1ccccc12 (centres undefined)	2.5
CCN(Cc1cc(N)ccc1OC)CC(O)c1cc2ccccc2c2cc(Br)ccc12 (centres undefined)	2.97
OC(CC1CCCCN1)c1cc2cc(C(F)(F)F)ccc2c2ccc(Cl)cc12 (centres undefined)	4.19
OC(CC1CCCCN1)c1cc2c(Cl)cc(Cl)cc2c2cc(Cl)ccc12 (centres undefined)	4.12
CCCCN(CCCC)CC(O)c1cc(C(C)(C)C)nc2c1cc(C)c1ccccc12 (centres undefined)	2.32
